Measurements from patent US9217156B2, “Non human animal model for ulcerative colitis and its main complications” (Institut National de la Sante et de la Recherche Medicale …, priority 2012, dated 2015).

Assays:
IL10/Nox1^dKO mice = assay: Salubrinal treatment of spontaneous colitis in IL10/Nox1 dKO mice; format: in vivo
Excerpt: To assess the pathogenic role of goblet cells in UC, WT and Nox1^KO mice were subjected to oral administration of DSS or rectal administration of TNBS. […] IRE1beta and ATF6alpha branch signaling were extended in colonic epithelial cells as evidenced by the increased XBP-1 mRNA splicing, the induction of GRP78, GRP94, PDI at both mRNA and protein levels, and dilated cisternae and gross distortion of the ER in goblet cells. […] Consistent with reduced eIF2α phosphorylation, increased expression of PPP1R15A/GADD34, a stress-inducible protein that recruits the catalytic subunit of protein phosphatase 1 and promotes eIF2alpha dephosphorylation, was detected in agreement with our previous data in humans^1. EIF2alpha phosphorylation is cytoprotective during ERS, because cells are sensitized to cell death when this pathway is genetically ablated^33 and protected when it is ectopically enforced^34. To test whether a selective pharmacological inhibitor of GADD34-mediated eIF2alpha dephosphorylation may alleviate colitis, IL10/Nox1^dKO mice were treated with 1 mg/kg salubrinal^35 for up to three weeks.

WT and Nox1^KO mice = assay: Tunicamycin (ERS inducer)-induced colitis in WT and Nox1 KO mice; format: in vivo; details: mice overexpressing goblet cells (Nox1^KO) versus WT mice
[1] = IL10/Nox1^dKO mice, 1 mg/kg for up to three weeks
[2] = salubrinal-treated IL10/Nox1^dKO mice

Row | Compound | immune cell infiltration (IL10/Nox1^dKO mice; [1]) | mucosal architecture and goblet cells (IL10/Nox1^dKO mice; [1]) | apoptosis of colonic mucosa (IL10/Nox1^dKO mice; IL10/Nox1^dKO mice, 1 mg/kg for up to three weeks, at least in part via CHOP expression) | eIF2alpha phosphorylation in colonic mucosa (IL10/Nox1^dKO mice; IL10/Nox1^dKO mice, 1 mg/kg for up to three weeks, mainly detected in colonic epithelial cells) | Grp78/Bip and Grp94 expression (IL10/Nox1^dKO mice; [2]) | amount of colonic and splenic Treg cells (IL10/Nox1^dKO mice; [2]) | levels of proinflammatory cytokines (IL10/Nox1^dKO mice; [2]) | severity of colitis induced by tunicamycin treatment (WT and Nox1^KO mice)
1 | O=C(/C=C/c1ccccc1)NC(NC(=S)Nc1cccc2cccnc12)C(Cl)(Cl)Cl (centres unmarked) [salubrinal] | markedly prevented | restored intact mucosal architecture with normal goblet cells | protected colonic mucosa against apoptosis | caused robust eIF2alpha phosphorylation | trend toward reduced | strongly decreased to baseline | strongly decreased to baseline | 
2 | tunicamycin |  |  |  |  |  |  |  | significantly induced a more severe colitis in mice overexpressing goblet cells than in WT mice
